One data set relates to GATA3 expression. The data set is described as follows: Intracellular staining of GATA3, CD4+ T cells under IL-2 conditions. The settings on record: 30 µM, two days. Type of data set: cell-based, mouse. The protocol:
The in vitro differentiated CD4^+ T cells were stimulated using an immobilized anti-TCR-β mAb (3 µg/ml, H57–597, BioLegend) for 6 h in the presence of monensin (2 µM). The cells were fixed with 4% paraformaldehyde (Cat#163–20145, Wako) and permeabilized with permeabilization buffer (50 mM NaCl, 5 mM EDTA, 0.02% NaN3, and 0.5% Triton X-100). Then, the cells were stained using the following antibodies, anti-IL-4-PE (Cat#504103, BioLegend, 1:50), anti-IL-5-APC (Cat#504305, BioLegend, 1:50), anti-IL-13-PE (Cat#12–7133–41, eBiosience, 1:50), anti-IFN-γ-FITC (Cat#562019, BD Biosciences, 1:500), and anti-IL-2-APC (Cat#503809, BioLegend, 1:50). For the intracellular staining of Gata3, the Foxp3/Transcription Factor Staining Buffer Kit (cat#TNB-0607, TONBO) was used according to the manufacturer’s protocol. Flow cytometry was performed using a Gallios Flow Cytometer instrument (Beckman Coulter) and a FACS Caliber instrument (BD Biosciences) and the results were analysed using the FlowJo software program (Tree Star, Ashland, OR, USA).
(D) Intracellular staining of GATA3 in CD4+ T cells stimulated with immobilized anti-TCRβ mAb plus anti-CD28 mAb under IL-2 conditions in the presence or absence of pyrrothiogatain (30 µM) for two days.

In a further data set the test system is Th2 cytokines. The data set is described as follows: ELISA of cytokine production, naive CD4+ T cells under Th2 conditions. The conditions noted are these: 30 and 80 µM, 5 days. The data set is classed as cell-based, mouse. How it is done: C57BL/6 mice were purchased from Clea (Clea Japan, Inc., Tokyo, Japan). Total CD4^+ T cells isolated from mouse spleen were prepared using a FITC anti-mouse CD4 antibody (Cat#100510, RM4–5, BioLegend) and anti-FITC-microbeads (Cat#130-097-050, Miltenyi Biotec). Naive CD4^+ T cells (CD44^low, CD62L^high) were prepared using a MojoSort Mouse CD4 T cell Isolation Kit (Cat#480033), BioLegend). Biotinylated anti-CD44 (Cat#103004, IM7) and anti-CD25 antibodies (Cat#102004, PC61) were purchased from BioLegend. […]
The CD4^+ T cells cultured for five days were stimulated using an immobilized anti-TCR-β mAb (3 µg/mL, H57–597, BioLegend) for 16 h, and the culture supernatants were recovered. The amount of cytokines in the recovered supernatants was determined with ELISA using the following antibodies and reagents: anti-IL-4 mAb (Cat#554387, BD Biosciences), biotin-anti-IL-4 mAb (Cat#554390, BD Biosciences), anti-IL-5 mAb (Cat#554393, BD Biosciences), biotin-anti-IL-5 mAb (Cat#554397, BD Biosciences), anti-IFN-γ mAb (Cat#551216, BD Biosciences), biotin-anti-IFN-γ mAb (Cat#554410, BD Biosciences), anti-IL-2 mAb (Cat#554424, BD Biosciences), biotin-anti-IL-2 mAb (Cat#554426, BD Biosciences), streptavidin horseradish peroxidase (Cat#434323, Invitrogen), and TMB peroxidase EIA substrate kit (Cat#1721066, BioRad). […]
For orientation: ELISA stands for enzyme-linked immunosorbent assay.

The next data set concerns Jurkat cells. As to the kind of experiment: MTS assay (cytotoxicity). Type of data set: cell-based. The settings on record: 0 to 100 µM, 3 days. The protocol: Jurkat cells were cultured at 37 °C with 5% CO2 in RPMI 1640 Medium (cat#72400047; Thermo Fisher) in the presence or absence of pyrrothiogatain (0 to 100 µM). Cell viability was measured using a CellTiter 96® AQueous One Solution Cell Proliferation Assay (cat#G3582; Promega) according to the manufacturer’s protocol.
In general terms: Formazan colour is commonly taken as a measure of viable cells.

In data set [1] the test system is GATA3-dependent IL-5 promoter activation. As to the kind of experiment: IL-5 promoter luciferase reporter assay in HEK293T cells. The data set is classed as cell-based. The settings on record: PMA 30 ng/mL, 0 to 30 µM. How it is done: The IL-5 promoter activity was determined as previously described[22],[23]. In brief, HEK293T cells were co-transfected with a firefly luciferase reporter (pGL3-IL-5 promoter), a renilla luciferase plasmid, and an expression vector (pcDNA3.1) using TransIT-LTI Regent (Cat#MIR2304, Mirus). Six hours after transfection, cells were treated with pyrrothiogatain (0 to 30 µM) and PMA (30 ng/mL) for 18 hours. The luciferase activity was measured using a Dual-Luciferase Reporter Assay System (cat#E1910, Promega).
A general note: In a reporter assay the amount or activity of a reporter protein is the signal.

Data set [2] deals with cytokine, GATA3 and Tbx21 mRNA. As to the kind of experiment: Quantitative RT-PCR, total CD4+ T cells under IL-2 conditions. Type of data set: cell-based, mouse. The settings on record: 30 µM, five days. How it is done:
C57BL/6 mice were purchased from Clea (Clea Japan, Inc., Tokyo, Japan). Total CD4^+ T cells isolated from mouse spleen were prepared using a FITC anti-mouse CD4 antibody (Cat#100510, RM4–5, BioLegend) and anti-FITC-microbeads (Cat#130-097-050, Miltenyi Biotec). Naive CD4^+ T cells (CD44^low, CD62L^high) were prepared using a MojoSort Mouse CD4 T cell Isolation Kit (Cat#480033), BioLegend). Biotinylated anti-CD44 (Cat#103004, IM7) and anti-CD25 antibodies (Cat#102004, PC61) were purchased from BioLegend. CD4^+ T cells (7.5 × 10^5) were stimulated using immobilized anti-TCR-β mAb (3 µg/mL, H57–597, BioLegend) plus an anti-CD28 mAb (1.0 µg/mL, cat#40–0281, TONBO Biosciences) for 2 days, and then, the cells were further expanded under similar conditions for an additional 3 days. IL-2 conditions: IL-2 (10 ng/mL, Pepro Tech); Th2 conditions: IL-2 (10 ng/mL, Pepro Tech), IL-4 (1 ng/mL, Pepro Tech), and anti-IFN-γ mAb (2.5 µg/mL, cat#40–731, TONBO Biosciences). Th1 conditions: IL-2 (10 ng/mL, Pepro Tech), IL-12 (1 ng/mL, Pepro Tech), and anti-IL-4 mAb (2.5 µg/mL, cat#40–731, TONBO Biosciences). The cultured cells were subjected to intracellular staining, ELISA assay, and RT-PCR. All animal experiments received approval from the Ehime University Administrative Panel for Animal Care. All animal care was conducted in accordance with the guidelines of Ehime University.
Total RNA was isolated using the TRI Reagent (Molecular Research Center, Inc.). Reverse transcription and qRT-PCR were performed using the Transcriptor First Strand cDNA Synthesis Kit (Cat#04379012001, Roche) and FastStart Essential DNA Green Master (Cat#06402712001, Roche), according to the manufacturer’s protocols. qRT-PCR primers were used as follow; IL-4: 5′-GATCGGCATTTTCAACGAG-3′ (forward), 5′-[…]-3′ (reverse); IL-13: 5′-[…]-3′ (forward), 5′-[…]-3′ (reverse); IFN-γ: 5′-[…]-3′ (forward), 5′-[…]-3′ (reverse); IL-2: 5′-[…]-3′ (forward), 5′-[…]-3′ (reverse); Gata3: 5′-TTATCAAGCCCAAGCGAAG-3′ (forward), 5′-TGGTGGTGGTCTGACAGTT-3′ (reverse); and Tbx21: 5′-[…]-3′ (forward), 5′-[…]-3′ (reverse).
(C) Quantitative RT-PCR analysis of the pyrrothiogatain-treated Th2 cells shown in panel (A).

Structures are written as SMILES.

As for `Cc1ccc(C)n1-c1ccsc1C(=O)O` [Pyrrothiogatain, 3-(2,5-dimethyl-1H-pyrrol-1-yl)thiophene-2-carboxylic acid], the “Expression of GATA3, protein level” value in the data set with GATA3 expression is given as “not influenced”. The “Production of IL-4, IL-5 and IL-13 (ELISA)” value with Th2 cytokines was “Decreased”. In addition, in the data set with Jurkat cells, the Cell viability entry was “did not influence cell viability”. Moreover, the “GATA3-dependent transcriptional activation of the IL-5 promoter” value in data set [1] is recorded as “significantly suppressed”. In data set [2], the “Expression of GATA3, mRNA level” value was “not influenced”; the “Expression of Tbx21” value is “increased”; the “mRNA expression of IFN-γ (RT-qPCR)” value was “Increased”; the “mRNA expression of IL-4, IL-5, IL-10, and IL-13 (RT-qPCR)” value is given as “decreased”.

Values taken from publication PMC6874683, “Pyrrothiogatain acts as an inhibitor of GATA family proteins and inhibits Th2 cell differentiation in vitro” (Scientific Reports, 2019).
